The text below walks through data of patent US20110166066A1, “CATESTATIN (CST) AND ITS VARIANTS FOR TREATMENT OF CARDIOVASCULAR AND METABOLIC DISORDERS” (priority 2008, published 2011).

Assay [1] concerns Langendorff perfused rat heart. Kind of assay: ET-1 stimulated Langendorff heart preparations. As for the experimental part: ET-1 stimulated preparations—Hearts, stabilized for 20 min with KHs, were perfused for 10 min with ET-1 (1 nM) and then washed-out with KHs. After returning to control conditions, each heart was perfused with KHs containing a single concentration of either WT-Cts (33 nM), P370L-Cts (110 nM) or G364S-Cts (200 nM) plus 1 nM ET-1 for a further 10 min.

The test system of assay [2] is pAMPK. Kind of assay: AMPK signalling by immunoblotting of mouse tissues. It counts as in vivo. The note with it: CgA-KO mice. From the text:
Adult WT (C57BL/6) and CgA-KO mice with mixed genetic background (129svJ×C57BL/6) were used in this study. Both WT and KO mice were generated from the original founder carrying mixed genotype (50% 129svJ: 50% C57BL/6) and were maintained by brother/sister mating. Hypertensive CGA-KO mice will serve as a model for hyper insulin sensitivity. WT mice were fed 60% high fat diet (HFD) for 20 weeks. Body weight and blood glucose levels were monitored and glucose and insulin tolerance testa were performed to determine status of insulin resistance. After 20 weeks of HFD feeding mice were injected IP with catestatin (40 μg/gm body weight) twice daily for 7 days. On the 8th day, 12 hours fasted mice were subjected to glucose tolerance tests to determine their insulin sensitivity. Tissues of WT and CgA-KO mice are analyzed AMPK and eNOS signalling by immunoblotting.
(In general: Immunoblotting shows a protein as a band on a membrane.)

No end group written: not given here.

In the case of “SSMKLSFRARAYGFRGPGPQL [WT-CST, catestatin]”, the “ET-1 induced positive inotropism” value in assay [1] (ET-1 1 nM, WT-CST 33 nM, P370L-CST 110 nM, G364S-CST 200 nM) is reported as “blocked”. In assay [1] (higher doses (10 nM)), the “Effect on LVP and +(LVdP/dT)max” value is given as “decreased”. Further, the pAMPK signal entry in assay [2] is “reduced”.
